This note sets out measurements from US20240269139A1, “COMPOUNDS FOR TARGETED PROTEIN DEGRADATION OF KINASES” (DANA-FARBER CANCER INSTITUTE, INC., priority 2020, published 2024).

Assay [1] has as its target protein kinases (human kinome) (Homo sapiens, UniProt Q15208). The format is cell-based. Conditions: for logFC: STK38 (Q15208).
The target in assay [2] is T1, protein kinases (human kinome) (Homo sapiens, UniProt Q08881).
T1 sequence (Q08881 1-620): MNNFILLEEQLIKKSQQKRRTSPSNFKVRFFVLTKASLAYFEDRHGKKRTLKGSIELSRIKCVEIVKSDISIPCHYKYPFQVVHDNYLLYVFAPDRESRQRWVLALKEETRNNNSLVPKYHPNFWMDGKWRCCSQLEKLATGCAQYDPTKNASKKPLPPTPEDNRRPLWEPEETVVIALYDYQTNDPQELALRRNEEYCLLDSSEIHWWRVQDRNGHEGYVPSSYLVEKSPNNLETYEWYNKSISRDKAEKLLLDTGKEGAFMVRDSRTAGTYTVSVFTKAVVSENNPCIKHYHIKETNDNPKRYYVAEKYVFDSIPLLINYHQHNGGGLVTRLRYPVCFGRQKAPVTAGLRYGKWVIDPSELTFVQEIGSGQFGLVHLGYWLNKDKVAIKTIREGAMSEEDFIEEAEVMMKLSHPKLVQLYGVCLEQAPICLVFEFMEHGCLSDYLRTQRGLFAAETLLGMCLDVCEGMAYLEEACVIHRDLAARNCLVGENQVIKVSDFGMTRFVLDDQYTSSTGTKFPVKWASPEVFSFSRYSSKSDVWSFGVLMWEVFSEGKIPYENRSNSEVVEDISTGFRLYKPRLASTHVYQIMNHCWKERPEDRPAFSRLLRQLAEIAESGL
The format is cell-based.

Each structure is given as a SMILES string. Like-named read-outs stand apart in the source and are kept apart here.

protein kinases (human kinome) (Homo sapiens, UniProt Q15208), sequence (Q15208 whole entry): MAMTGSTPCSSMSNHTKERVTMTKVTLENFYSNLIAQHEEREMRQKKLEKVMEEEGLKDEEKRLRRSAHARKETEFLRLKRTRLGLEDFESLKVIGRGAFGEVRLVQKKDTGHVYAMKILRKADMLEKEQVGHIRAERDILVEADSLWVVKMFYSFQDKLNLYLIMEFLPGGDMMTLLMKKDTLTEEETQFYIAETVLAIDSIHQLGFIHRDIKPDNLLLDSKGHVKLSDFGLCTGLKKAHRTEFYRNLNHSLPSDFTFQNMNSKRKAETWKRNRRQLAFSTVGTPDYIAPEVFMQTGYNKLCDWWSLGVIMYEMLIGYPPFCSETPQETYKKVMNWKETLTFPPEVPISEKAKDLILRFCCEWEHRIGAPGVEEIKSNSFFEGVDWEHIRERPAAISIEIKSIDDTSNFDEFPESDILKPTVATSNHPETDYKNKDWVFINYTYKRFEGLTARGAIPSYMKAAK

With `NC(=O)c1c(F)cccc1Nc1nc(Nc2ccc(S(=O)(=O)NCCOCCOCCOCCOCCNc3cccc4c3C(=O)N(C3CCC(=O)NC3=O)C4=O)cc2)ncc1Br` (stereo not drawn) [TMX.02.138], in assay [1] (experiment wp146), the logFC is recorded as −0.3476 and the “logFC of STK38 (Q15208)” value is −0.3476.

In assay [2] (ITK (Q08881) protein abundance, degrader vs DMSO, direction of change down), `CC(C)S(=O)(=O)c1ccccc1Nc1nc(Nc2ccc(N3CCN(CCOCCOCCC(=O)NCCNc4cccc5c4CN(C4CCC(=O)NC4=O)C5=O)CC3)cc2)ncc1Cl` (stereo not drawn) [TL13.97] yielded a logFC of −2.28. Further, the “logFC ITK (Q08881)” value in assay [2] (experiment wp137) is recorded as −2.28. Moreover, in assay [1] (experiment wp137), the logFC was −0.3912 and the “logFC of STK38 (Q15208)” value was −0.3912.
